From PubChem BioAssay AID1963970 (Molecular Pharmacology Branch, DTP, NCI, 2024)
Values belong to the compound of their own block, whether it stands above or below them.

Tested on: 931267-113-T-J1-PDC multicell spheroid viability
Assay: Anticancer human tumor 931267-113-T-J1-PDC patient-derived colon adenocarcinoma cell line growth inhibition [PI3K]
Conditions: for IC50: curve of first compound; for viability, T/C: stronger effect = lower value
From the text: Combinatorial screen of targeted agents with the PI3K inhibitors inavolisib, alpelisib, duvelisib, and copanlisib in multi-cell type tumor spheroids
A high-throughput screen of multi-cell type tumor spheroids was designed to identify active combinations of targeted small molecules and PI3K pathway inhibitors. Complex spheroids include a stromal component modeled by human endothelial cells (HUVEC) and fibroblasts modeled by human mesenchymal stem cells (MSCs). The concentration ranges selected for each drug and investigational agent were based upon clinically achievable concentrations if the clinical Cmax of the agent was known.
Compounds. The drugs and investigational agents: inavolisib (NSC800729), alpelisib (NSC765974), duvelisib (NSC772469), copanlisib (NSC816437), ipatasertib (NSC767898), afuresertib (NSC778305), talazoparib (NSC767125), sapanisertib (NSC764658), selumetinib (NSC741078), tovorafenib (DAY101, NSC766906), vemurafenib (NSC761431), ravoxertinib (NSC781343), sotorasib (NSC818433), MRTX1133 (NSC 836407), abemaciclib (NSC 768073), palbociclib (NSC758247), venetoclax (NSC 766270), SY5609 (NSC837396), enzalutamide (NSC755605), and darolutamide (NSC825331), were obtained from the National Cancer Institute (NCI) Developmental Therapeutics Program Chemical Repository. The FDA-approved anticancer drug set is available from the NCI Developmental Therapeutics Program. […] The stock solutions were prepared in dimethyl sulfoxide (DMSO, Sigma-Aldrich, St. Louis, MO, cat. D2650) at 800-fold the tested concentration and stored at -70 degrees C prior to their use. All drugs and investigational agents were tested over a range starting from a high concentration at or near the clinical Cmax and decreasing in half-log increments. If the clinical Cmax for an agent had not been determined, the highest concentration tested was 10 microM.
Cell Culture. All cells were maintained in an incubator at 37 degrees C and 5% CO2 with 95% humidity. The PDC lines were cultured according to standard operating procedures established by the NCI PDMR (https://pdmr.cancer.gov/sops/default.htm). All PDCs were thawed and cultured in Matrigel-coated flasks prepared with a working solution of 1X Ham's F-12 nutrient mix, without supplementation (Invitrogen, Waltham, MA, cat. 11765054), 100 U/mL penicillin-streptomycin (Invitrogen, cat. 15140122), and 2.5% Matrigel (Corning Inc., Corning, NY, cat. 354248) for the first three passages. The 354836-022-R-J1-PDC, 475296-252-R-J1-PDC, and 997726-040-R-J2-PDC lines were cultured in 6A media, which includes advanced DMEM/F-12 (Thermo Fisher Scientific, cat. 12634028), 10 mM HEPES (Thermo Fisher Scientific, cat. 15630080), 1X GlutaMAX supplement (Thermo Fisher Scientific, cat. 35050061), 0.1 mg/mL primocin (InvivoGen, San Diego, CA, cat. ant-pm-2), 10% defined fetal bovine serum, heat inactivated (HyClone Laboratories Inc., Logan, UT, cat. SH30070.03HI), 50% L-WRN conditioned media (ATCC, cat. CRL-3276), 1.25 mM N-Acetyl-L-cysteine (Sigma-Aldrich, cat. A9165), 10 mM nicotinamide (Sigma-Aldrich, cat. N0636), 1X B-27 supplement (Thermo Fisher Scientific, cat. 17504044), 1X N-2 supplement (Thermo Fisher Scientific, cat. 17502048), and 10 microM Y-27632 dihydrochloride (Tocris Bioscience, Bristol, United Kingdom, cat. 1254). The 624824-186-R-J2-PDC line was cultured in 6C/Colon 1B media, which includes all 6A media components plus 50 ng/mL human EGF recombinant protein (Thermo Fisher Scientific, cat. PHG0311). […]

[1] = second compound 0.0316 µM, first compound 0.0316 µM
[2] = second compound 0.0316 µM, first compound 0.1 µM
[3] = second compound 0.0316 µM, first compound 0.316 µM
[4] = second compound 0.0316 µM, first compound 1 µM
[5] = second compound 0.0316 µM, first compound 3.16 µM
[6] = second compound 0.0316 µM, first compound 10 µM
[7] = second compound 0.1 µM, first compound 0.0316 µM
[8] = second compound 0.1 µM, first compound 0.1 µM
[9] = second compound 0.1 µM, first compound 0.316 µM
[10] = second compound 0.1 µM, first compound 1 µM
[11] = second compound 0.1 µM, first compound 3.16 µM
[12] = second compound 0.1 µM, first compound 10 µM
[13] = second compound 0.316 µM, first compound 0.0316 µM
[14] = second compound 0.316 µM, first compound 0.1 µM
[15] = second compound 0.316 µM, first compound 0.316 µM
[16] = second compound 0.316 µM, first compound 1 µM
[17] = second compound 0.316 µM, first compound 3.16 µM
[18] = second compound 0.316 µM, first compound 10 µM
[19] = second compound 1 µM, first compound 0.0316 µM
[20] = second compound 1 µM, first compound 0.1 µM
[21] = second compound 1 µM, first compound 0.316 µM
[22] = second compound 1 µM, first compound 1 µM
[23] = second compound 1 µM, first compound 3.16 µM
[24] = second compound 1 µM, first compound 10 µM
[25] = second compound 3.16 µM, first compound 0.0316 µM
[26] = second compound 3.16 µM, first compound 0.1 µM
[27] = second compound 3.16 µM, first compound 0.316 µM
[28] = second compound 3.16 µM, first compound 1 µM
[29] = second compound 3.16 µM, first compound 3.16 µM
[30] = second compound 3.16 µM, first compound 10 µM
[31] = second compound 10 µM, first compound 0.0316 µM
[32] = second compound 10 µM, first compound 0.1 µM
[33] = second compound 10 µM, first compound 0.316 µM
[34] = second compound 10 µM, first compound 1 µM
[35] = second compound 10 µM, first compound 3.16 µM
[36] = second compound 10 µM, first compound 10 µM
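Note: viability read 7 days after compound addition.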

IC50 (second compound 0.0316 µM): > 10 µM | IC50 (second compound 0.1 µM): > 10 µM | IC50 (second compound 0.316 µM): > 10 µM | IC50 (second compound 1 µM): > 10 µM | IC50 (second compound 3.16 µM): > 10 µM | IC50 (second compound 10 µM): > 10 µM
SMILES: CC1(C)CCC(Nc2ncc(C(F)(F)F)c(-c3c[nH]c4c(P(C)(C)=O)c(C#N)ccc34)n2)CN1 (stereo unspecified) + CC(Nc1ncnc2nc[nH]c12)c1cc2cccc(Cl)c2c(=O)n1-c1ccccc1
viability, T/C [1]: 107% | viability, T/C [2]: 105% | viability, T/C [3]: 97% | viability, T/C [4]: 88.5% | viability, T/C [5]: 90.8% | viability, T/C [6]: 74.1% | viability, T/C [7]: 114% | viability, T/C [8]: 105% | viability, T/C [9]: 93.6% | viability, T/C [10]: 93.1% | viability, T/C [11]: 91.5% | viability, T/C [12]: 81.6% | viability, T/C [13]: 104% | viability, T/C [14]: 104% | viability, T/C [15]: 103% | viability, T/C [16]: 92.8% | viability, T/C [17]: 95.1% | viability, T/C [18]: 67.4% | viability, T/C [19]: 106% | viability, T/C [20]: 100% | viability, T/C [21]: 94.6% | viability, T/C [22]: 82.7% | viability, T/C [23]: 96.5% | viability, T/C [24]: 69.5% | viability, T/C [25]: 106% | viability, T/C [26]: 100% | viability, T/C [27]: 89.4% | viability, T/C [28]: 87% | viability, T/C [29]: 82.6% | viability, T/C [30]: 69.5% | viability, T/C [31]: 92.2% | viability, T/C [32]: 97% | viability, T/C [33]: 80.1% | viability, T/C [34]: 82.5% | viability, T/C [35]: 83.1% | viability, T/C [36]: 56.2%

IC50 (second compound 0.00316 µM): > 0.1 µM | IC50 (second compound 0.01 µM): > 0.1 µM | IC50 (second compound 0.0316 µM): > 0.1 µM | IC50 (second compound 0.1 µM): > 0.1 µM | IC50 (second compound 0.316 µM): > 0.1 µM | IC50 (second compound 1 µM): > 0.1 µM
SMILES: CC(=O)c1c(C)c2cnc(Nc3ccc(N4CCNCC4)cn3)nc2n(C2CCCC2)c1=O + CC(Nc1ccc2c(c1)OCCn1cc(N3C(=O)OCC3C(F)F)nc1-2)C(N)=O
viability, T/C (second compound 0.00316 µM, first compound 0.000316 µM): 104% | viability, T/C (second compound 0.00316 µM, first compound 0.001 µM): 110% | viability, T/C (second compound 0.00316 µM, first compound 0.00316 µM): 95.1% | viability, T/C (second compound 0.00316 µM, first compound 0.01 µM): 111% | viability, T/C (second compound 0.00316 µM, first compound 0.0316 µM): 105% | viability, T/C (second compound 0.00316 µM, first compound 0.1 µM): 99.8% | viability, T/C (second compound 0.01 µM, first compound 0.000316 µM): 111% | viability, T/C (second compound 0.01 µM, first compound 0.001 µM): 101% | viability, T/C (second compound 0.01 µM, first compound 0.00316 µM): 98.7% | viability, T/C (second compound 0.01 µM, first compound 0.01 µM): 93.3% | viability, T/C (second compound 0.01 µM, first compound 0.0316 µM): 108% | viability, T/C (second compound 0.01 µM, first compound 0.1 µM): 105% | viability, T/C (second compound 0.0316 µM, first compound 0.000316 µM): 108% | viability, T/C (second compound 0.0316 µM, first compound 0.001 µM): 93.5% | viability, T/C (second compound 0.0316 µM, first compound 0.00316 µM): 91.9% | viability, T/C (second compound 0.0316 µM, first compound 0.01 µM): 106% | viability, T/C [1]: 110% | viability, T/C [2]: 95.4% | viability, T/C (second compound 0.1 µM, first compound 0.000316 µM): 100% | viability, T/C (second compound 0.1 µM, first compound 0.001 µM): 97.7% | viability, T/C (second compound 0.1 µM, first compound 0.00316 µM): 92.7% | viability, T/C (second compound 0.1 µM, first compound 0.01 µM): 87.1% | viability, T/C [7]: 105% | viability, T/C [8]: 87.8% | viability, T/C (second compound 0.316 µM, first compound 0.000316 µM): 92.1% | viability, T/C (second compound 0.316 µM, first compound 0.001 µM): 88.1% | viability, T/C (second compound 0.316 µM, first compound 0.00316 µM): 81% | viability, T/C (second compound 0.316 µM, first compound 0.01 µM): 85.7% | viability, T/C [13]: 91.6% | viability, T/C [14]: 82.2% | viability, T/C (second compound 1 µM, first compound 0.000316 µM): 75.9% | viability, T/C (second compound 1 µM, first compound 0.001 µM): 74% | viability, T/C (second compound 1 µM, first compound 0.00316 µM): 77.8% | viability, T/C (second compound 1 µM, first compound 0.01 µM): 70.5% | viability, T/C [19]: 80.1% | viability, T/C [20]: 66.3%

IC50 (second compound 0.0316 µM): 6.07 µM | IC50 (second compound 0.1 µM): 6.04 µM | IC50 (second compound 0.316 µM): 6.07 µM | IC50 (second compound 1 µM): 5.96 µM | IC50 (second compound 3.16 µM): 5.92 µM | IC50 (second compound 10 µM): 5.69 µM
SMILES: CCCS(=O)(=O)Nc1ccc(F)c(C(=O)c2c[nH]c3ncc(-c4ccc(Cl)cc4)cc23)c1F + CC(Nc1ncnc2nc[nH]c12)c1cc2cccc(Cl)c2c(=O)n1-c1ccccc1
viability, T/C [1]: 102% | viability, T/C [2]: 101% | viability, T/C [3]: 104% | viability, T/C [4]: 125% | viability, T/C [5]: 112% | viability, T/C [6]: 4.93% | viability, T/C [7]: 101% | viability, T/C [8]: 111% | viability, T/C [9]: 103% | viability, T/C [10]: 107% | viability, T/C [11]: 119% | viability, T/C [12]: 4.62% | viability, T/C [13]: 107% | viability, T/C [14]: 103% | viability, T/C [15]: 109% | viability, T/C [16]: 122% | viability, T/C [17]: 110% | viability, T/C [18]: 3.9% | viability, T/C [19]: 102% | viability, T/C [20]: 93.9% | viability, T/C [21]: 113% | viability, T/C [22]: 110% | viability, T/C [23]: 109% | viability, T/C [24]: 4.52% | viability, T/C [25]: 99.2% | viability, T/C [26]: 99.9% | viability, T/C [27]: 102% | viability, T/C [28]: 116% | viability, T/C [29]: 104% | viability, T/C [30]: 5.3% | viability, T/C [31]: 92.3% | viability, T/C [32]: 95.2% | viability, T/C [33]: 99.6% | viability, T/C [34]: 108% | viability, T/C [35]: 97.7% | viability, T/C [36]: 4.17%
